From ChEMBL document CHEMBL1799994, “Synthesis and docking studies on styryl chromones exhibiting cytotoxicity in human breast cancer cell line” (Bioorg Med Chem Lett, 2010)

Columns and labels:
[1] = tested on: MCF7; assay: Antiproliferative activity against human MCF7 cells expressing estrogen receptor after 24 hrs by MTT assay; type: functional, cell-based
[2] = tested on: MCF7; assay: Cytotoxicity against human MCF7 cells expressing estrogen receptor after 24 hrs by MTT assay; type: functional, cell-based

`CC(=O)OC1=C(/C=C/c2ccccc2)Oc2ccccc2C1=C(C#N)C#N` was tested, and the Activity [1] was “Dose-dependent effect” and the Activity [2] was “Dose-dependent effect”.
